Experimental data as given in PMC4827093, “Proximal ADP-ribose Hydrolysis in Trypanosomatids is Catalyzed by a Macrodomain” (Scientific Reports, 2016).
Where two headings read alike, the source gives them in different places.

How the values were obtained:
[1] = target: T1, TcMDO (Trypanosoma cruzi MacroD-like protein) (Trypanosoma cruzi, UniProt Q4DQ03); assay: isothermal titration calorimetry; assay type: binding
T1 construct: gene Tc00.1047053509179.20; full-length, codon-optimized synthetic cDNA, pNH-TrxT vector, E. coli BL21(DE3), fusion tags cut with TEV protease; crystal structure comprises residues 13-257
T1 sequence (Q4DQ03 1-267): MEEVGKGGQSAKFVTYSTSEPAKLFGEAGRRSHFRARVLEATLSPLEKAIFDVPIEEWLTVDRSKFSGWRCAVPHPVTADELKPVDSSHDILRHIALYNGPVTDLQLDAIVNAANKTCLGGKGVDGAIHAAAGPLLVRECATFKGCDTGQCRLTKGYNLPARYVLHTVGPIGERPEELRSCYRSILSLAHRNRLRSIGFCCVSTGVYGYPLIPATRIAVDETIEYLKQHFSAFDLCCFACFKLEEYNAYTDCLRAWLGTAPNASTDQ

[2] = target: T2, TbMDO (Trypanosoma brucei MacroD-like protein) (Trypanosoma brucei, UniProt C9ZP98); assay: isothermal titration calorimetry; assay type: binding
T2 construct: gene TbgDal_V3640; full-length, codon-optimized synthetic cDNA, pNH-TrxT vector, E. coli BL21(DE3), fusion tags cut with TEV protease; crystal structures comprise residues 11-261
T2 sequence (C9ZP98 1-265): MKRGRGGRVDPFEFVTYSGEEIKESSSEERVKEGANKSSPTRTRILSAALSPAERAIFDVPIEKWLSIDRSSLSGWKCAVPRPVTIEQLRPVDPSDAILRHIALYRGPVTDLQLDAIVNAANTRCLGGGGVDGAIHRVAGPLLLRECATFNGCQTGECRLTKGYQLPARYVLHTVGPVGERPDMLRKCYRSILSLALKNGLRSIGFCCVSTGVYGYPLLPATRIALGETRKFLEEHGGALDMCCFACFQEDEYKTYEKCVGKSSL

[3] = target: T2, TbMDO (Trypanosoma brucei MacroD-like protein); assay: ESI-TOF mass spectrometry of hydrolysis products; assay type: biochemical; settings: 0.5 mM 2′/3′-O-acetyl-ADP-ribose, 50 μM protein, 22 °C, 4 h; isomer mixture
[4] = target: T1, TcMDO (Trypanosoma cruzi MacroD-like protein); assay: ESI-TOF mass spectrometry of hydrolysis products; assay type: biochemical; settings: 0.5 mM 2′/3′-O-acetyl-ADP-ribose, 50 μM protein, 22 °C, 4 h; isomer mixture
[5] = pH 7.5, 50 mM HEPES, 250 mM NaCl, 0.5 mM TCEP, 25 °C, three titrations, same data as the Ka row, read-out: affinities

`Nc1ncnc2c1ncn2[C@@H]1O[C@H](COP(=O)(O)OP(=O)(O)OC[C@H]2OC(O)[C@H](O)[C@@H]2O)[C@@H](O)[C@H]1O` (some centres unmarked) [ADP-ribose] showed a Kd [1, 5] of 0.2 µM and a Kd [2, 5] of 1.3 µM.

For `Nc1ncnc2c1ncn2[C@@H]1O[C@H](COP(=O)(O)OP(=O)(O)O)[C@@H](O)[C@H]1O` [ADP], the Kd ([1]; read-out: K (converted)) was 820 µM, the Kd ([1]; read-out: KD) was 800 µM and the Kd ([2]; read-out: K (converted)) was 1850 µM. It also gave a Kd ([2]; read-out: KD) of 1900 µM.

With `CC(=O)O[C@H]1C(O)O[C@H](COP(=O)(O)OP(=O)(O)OC[C@H]2O[C@@H](n3cnc4c(N)ncnc43)[C@H](O)[C@@H]2O)[C@H]1O` (some centres unmarked) [O-acetyl-ADP-ribose] the “ESI-TOF mass spectrometry of hydrolysis products” value [3] was “Incubation of O-acetyl-ADP-ribose with both proteins resulted in the decrease of the mass” and the “ESI-TOF mass spectrometry of hydrolysis products” value [4] was “Incubation of O-acetyl-ADP-ribose with both proteins resulted in the decrease of the mass”.
